Measurements as given in US12099061B2, “Nidogen 1 as a diagnostic marker and therapeutic target of hepatocellular carcinoma, composition and methods thereof” (THE UNIVERSITY OF HONG KONG, priority 2020, dated 2024).

Tested on: MHCC97L cells
Assay: EV secretion of MHCC97L cells treated with Tipifarnib
Assay type: cell-based, human
Conditions: 1 μM Tipifarnib for 48 hr; EVs isolated from conditioned medium
Protocol: FIGS. 11A-11B Reduction of EV secretion attenuates liver tumor formation. (A) Quantification of EVs isolated from conditioned medium of MHCC97L treated with 1 μM Tipifarnib or DMSO vehicle for 48 hr. The analysis was done in triplicate. (B) Image of dissected liver of mice subjected to orthotopic liver injection of Matrigel/MHCC97L (1×10^6 cells/injection) pretreated with 48-hr DMSO or Tipifarnib (1 μM) (n=6). Measurement of tumor volume is shown. Data are represented as mean±SEM. *P<0.05 and ***P<0.001 from Student's t test.
Protein lysates were obtained by cell lysis with NETN lysis buffer (0.1% NP40, 25 mM Tris-HCl, 50 mM […], 0.2 mM EDTA), supplemented with 10% cOmplete™ protease inhibitor cocktail and 10% PhosStop phosphatase inhibitor cocktail (Roche Applied Science). Bradford reagent (Bio-Rad Corporation) using bovine serum albumin as standard concentration was used to quantify protein amount. […] Chemiluminescent signals were detected by ECL™ Western Blotting Detection Reagents (Amersham). […] The level of EV-CD63 was expressed as amount of CD63 over EV protein amount (μg/μg) (w/w). […] The amount of isolated EVs was quantified. […] After 6 weeks post injection, mice were sacrificed and liver tumor volume was measured using a caliper and calculated using the formula: volume=L×W^2×0.5 (L, the largest diameter; W, the smallest diameter). […]

Cn1cncc1[C@@](N)(c1ccc(Cl)cc1)c1ccc2c(c1)c(-c1cccc(Cl)c1)cc(=O)n2C [tipifarnib, Tipifarnib]
reduction of EV secretion from MHCC97L cells: up to 50%
